Patent US10004718B2, “Erythropoietin expression promoter” (TOHOKU UNIVERSITY, priority 2012, dated 2018)

What was measured:
[1] = test system: ATP production in Hep3B cells; test: ATP production in Hep3B cells; type: cell-based, human; settings: for amount of ATP produced (FIG. 8): compound 10 μM, 24 hours, ratio to DMSO = 1; for increase of ATP concentration in cells relative to the normal level: at least in 3 hours
Protocol: The Hep3B cells were seeded at 1×10^4 cells/well to a 24-well cell culture plate and then cultured under normal oxygen (20% O2) for 24 hours. Each of 36 types of compounds (compounds #1 to 15, 17 to 31, and 34 to 39) was mixed at a concentration of 10 μM into RPMI1640 common medium 1. After further culture under normal oxygen (20% […]) for 3 hours, 6 hours, or 24 hours, the concentration of ATP produced in the medium was measured using ATP Assay Reagent of “Cells” (manufactured by Toyo B-Net Co., Ltd.) and GloMa 96 Microplate Luminometer (manufactured by Promega K.K.). Hep3B cells cultured in the absence of the compound (DMSO added [1%]) (“DMSO” of FIGS. 6 to 8) were used as a negative control. Hep3B cells cultured in the presence of HIF activators (FG-4592 [10 μM], DMOG [10 μM], 3,4-DHB [10 μM], and ciclopirox[10 μM]) (“FG”, “DMOG”, “34-DHB”, and “Ciclo”, respectively, of FIGS. 6 to 8) and Hep3B cells cultured in the presence of a transcriptional repressor GATA-specific inhibitor of erythropoietin (K7174 [10 μM]) (“K7174” of FIGS. 6 to 8) were used as positive controls.

[2] = test system: mouse erythropoietin gene promoter; test: Luciferase reporter assay of erythropoietin gene promoter in Hep3B cells; type: cell-based; settings: for effect on erythropoietin gene promoter transcriptional activity compared with HIF activator FG-4592: compound 10 μM vs FG-4592 10 μM, 20% O2; for transcription level of the erythropoietin gene promoter: compound 10 μM, 20% O2, 48 hours, vs 20% O2/DMSO
Protocol: A plasmid vector HE-mPro-luc for luciferase assay on the promoter activity of the 5′ upstream transcriptional regulatory region of the mouse erythropoietin gene was prepared by cleaving, with restriction enzymes XbaI and SacI, a region having a length from −571 to +53 bp starting at the translation initiation site of exon 1 of the mouse erythropoietin gene, and inserting this region to a luciferase reporter vector pXP2 (Nordeen S K. BioTechniques. 6: […], 1988).
The Hep3B cells were adjusted to 10×10^4 cells/well in a 24-well cell culture plate and subcultured. Under microscopy, the Hep3B cells that reached a cell density of 70 to 80% were transfected with the plasmid DNA for luciferase reporter assay. The composition of a solution for transfection was prepared by mixing 2 μg of HE-mPro-luc, 50 ng of pRh-TK (manufactured by Promega K.K.), and 2 μl of Lipofectamine 2000 (manufactured by Invitrogen Corp.) with 100 μl of OptiMEM-I (manufactured by Life Technologies, Inc./GIBCO) per well, followed by incubation at room temperature for 20 minutes. The solution was added to the Hep3B cells in the 24-well cell culture plate preincubated in 0.5 ml of serum-free OptiMEM-I medium, and then incubated for 4 hours without serum and antibiotics under conditions of 37° C. and 5% CO2/20% O2. Then, the medium was replaced with RPMI1640 common medium 1 supplemented with each of 5 types of compounds (compounds #2, 4, 5, 18, and 21) at a concentration of 10 μM, followed by further incubation for 48 hours under conditions of 37° C. and 5% CO2/20% O2. Then, the medium was replaced with 0.5 ml of serum-free PBS, and the cells were gently washed, followed by the removal of PBS by suction. This operation was carried out twice. Then, 100 μl of passive lysis buffer (manufactured by Promega K.K.) was added thereto, and the cells were lysed by mixing at room temperature for 20 minutes. Hep3B cells cultured in the absence of the compound (DMSO added [1%]) (“20% O2/DMSO” of FIG. 3) were used as a negative control. Hep3B cells cultured in the presence of an HIF activator (FG-4592 [10 μM]) (“20% O2/FG4592” of FIG. 3) and Hep3B cells cultured under hypoxia (1% O2) conditions and in the absence of the compound (DMSO added [1%]) (“1% O2/DMSO” of FIG. 3) were used as positive controls.
Dual Luciferase Reporter Assay System (manufactured by Promega K.K.) was used in the luciferase reporter assay. The amounts of firefly and Renilla luciferases were measured using a luminometer Lumat LB9507 (manufactured by BERTHOLD TECHNOLOGIES GmbH & Co. KG). The amount of Fire fly luciferase was divided by the amount of Renilla luciferase to calculate the transcriptional activity of the erythropoietin gene.

Leigh cells = test: Cell death caused by oxidative stress (BSO) in Leigh syndrome patient fibroblasts; type: cell-based, human; settings: compound 10 μM, 4 days after BSO treatment
Protocol: In Examples 2 to 7 and Reference Example 1 below, an erythropoietin-producing human hepatocellular carcinoma cell Hep3B (obtained from ATCC [American Type Culture Collection]) was cultured and maintained under conditions of 5% CO2/20% O2 and 37° C. in an RPMI1640 (manufactured by Life Technologies, Inc./GIBCO) medium containing 100 U/mL penicillin (manufactured by Life Technologies, Inc./GIBCO), 100 μg/mL streptomycin (manufactured by Life Technologies, Inc./GIBCO), and 10% fetal bovine serum (FBS) (manufactured by Life Technologies, Inc./GIBCO) (hereinafter, referred to as “RPMI1640 common medium 1”). In Example 15 below, Leigh syndrome patients were subjected to skin biopsy to obtain skin fibroblast cells, which were then primarily cultured under conditions of 5% CO2/20% O2 and 37° C. in a DMEM low glucose (manufactured by Life Technologies, Inc./GIBCO) medium containing 100 U/mL penicillin (manufactured by Life Technologies, Inc./GIBCO), 100 μg/mL streptomycin (manufactured by Life Technologies, Inc./GIBCO), and 1% FBS (manufactured by Life Technologies, Inc./GIBCO) (hereinafter, referred to as “DMEM low glucose common medium”) to isolate cells (Leigh cells). In Example 13 below, a human kidney-derived cell line HK-2 (obtained from ATCC) was cultured and maintained under conditions of 5% CO2/20% O2 and 37° C. in a DMEM/F12 (manufactured by Life Technologies, Inc./GIBCO) medium containing 100 U/mL penicillin (manufactured by Life Technologies, Inc./GIBCO), 100 μg/mL streptomycin (manufactured by Life Technologies, Inc./GIBCO), and 10% fetal bovine serum (manufactured by Life Technologies, Inc./GIBCO) (hereinafter, referred to as “DMEM/F12 common medium”). In Example 14 below, a rat islet of Langerhans-derived cell line ISN-1e (kindly provided by Hisamitsu Ishihara, Nihon University School of Medicine) was cultured and maintained under conditions of 5% CO2/20% O2 and 37° C. in an RPMI1640 (manufactured by Life Technologies, Inc./GIBCO) medium containing 10 mM HEPES (manufactured by Sigma-Aldrich Corp.), 2 mM glutamine (manufactured by Sigma-Aldrich Corp.), 50 μM β-mercaptoethanol (manufactured by Sigma-Aldrich Corp.), 100 U/mL penicillin (manufactured by Life Technologies, Inc./GIBCO), 100 μg/mL streptomycin (manufactured by Life Technologies, Inc./GIBCO), and 10% FBS (manufactured by Life Technologies, Inc./GIBCO) (hereinafter, referred to as “RPMI1640 common medium 2”).
The Leigh cells were seeded at 4×10^4 cells/well to a 24-well cell culture plate and then cultured for 24 hours. The glutathione synthesis inhibitor BSO (L-buthionine sulphoximine) (manufactured by Sigma-Aldrich Corp.) was mixed at […] into a medium. After culture for 24 hours in the presence of BSO, each of 5 types of compounds (compounds #2, 4, 5, 21, and 35) was mixed at 10 μM into the medium. After culture for 4 days in the presence of these 5 types of compounds, the number of live cells was measured using Cell Counting Kit-8 (manufactured by Dojindo Laboratories) to calculate the survival rate of the cells (“BSO+#2”, “BSO+#4”, “BSO+#5”, “BSO+#21”, and “BSO+#35” of FIG. 17). […]

[3] = test system: mRNA expression of the erythropoietin gene; test: Quantitative PCR of erythropoietin mRNA in Hep3B cells; type: cell-based, human; settings: compound 10 μM, 20% O2, GAPDH internal standard
Protocol: Of the 5 types of compounds confirmed in Example 4 to be effective for promoting the transcriptional activity of the erythropoietin gene promoter, 4 types of compounds (compounds #2, 4, 5, and 21) were selected. From Hep3B cells cultured in RPMI1640 common medium 1 supplemented with each of these 4 types of compounds at a concentration of 10 μM, total RNA was extracted using TriPure Isolation Reagent (manufactured by F. Hoffmann La Roche AG) in a 6-well cell culture plate. Hep3B cells cultured in the absence of the compound (DMSO added) (“20% O2/DMSO” of FIG. 4) were used as a negative control. Hep3B cells cultured in the presence of a GATA-specific inhibitor (K7174 [10 μM]) (“20% O2/K7174” of FIG. 4) and Hep3B cells cultured under hypoxia (1% O2) conditions and in the absence of the compound (DMSO added [1%]) (“1% O2/DMSO” of FIG. 4) were used as positive controls.
The extracted RNA was used as a template to synthesize cDNA using SuperScript III RTS First-strand kit (manufactured by Invitrogen Corp.). Then, the expression of the erythropoietin mRNA was measured by quantitative PCR with GAPDH as an internal standard. The quantitative PCR was carried out using TaqMan® Gene Expression Assays (using GAPDH; Assay ID: Rn99999916_s1, and human erythropoietin; Assay ID: Hs00171267_ml TaqMan® probes [manufactured by Applied Biosystems Inc.]) and Step One Plus Real-Time PCR System (manufactured by Applied Biosystems Inc.).

melting point [°C] | Structure (SMILES) | amount of ATP produced (FIG. 8) [1] | further results
 | CCn1cc(CC(=O)O)c2ccccc21 [compound #27, N-Ethyl-3-indoleacetic acid] | enhance the amount of ATP produced | 
 | CCC(C)CCC(C(=O)O)c1c[nH]c2ccccc12 (stereo not drawn) [compound #18, α-(3-Methyl-1-pentyl)-3-indoleacetic acid] |  | effect on erythropoietin gene promoter transcriptional activity compared with HIF activator FG-4592 [2]: superior to the effect of the existing HIF activator (FG-4592); transcription level of the erythropoietin gene promoter [2]: increase the transcription level
 | CCCCCCn1cc(CC(=O)O)c2ccccc21 [compound #30, N-Hexyl-3-indoleacetic acid] | enhance the amount of ATP produced | 
 | CCCCn1cc(CC(=O)O)c2ccccc21 [compound #29, N-Butyl-3-indoleacetic acid] | enhance the amount of ATP produced | 
133.6 to 136.8 | CCCOc1ccc2[nH]cc(CC(=O)O)c2c1 [compound #38, 5-(1-Propoxy)-3-indoleacetic acid] | enhance the amount of ATP produced | 
149 to 150 | O=C(CC(C(=O)O)c1c[nH]c2ccccc12)c1ccccc1 (stereo not shown) [compound #20, 4-Phenyl-2-(1H-indol-3-yl)-4-oxo-butanoic acid] |  | 
 | O=C(CC(C(=O)O)c1c[nH]c2ccccc12)c1ccc(Cl)cc1 (stereo not shown) [compound #2, 4-(4-Chlorophenyl)-2-(1H-indol-3-yl)-4-oxo-butanoic acid] |  | cell death of the Leigh cells by BSO (Leigh cells): efficiently suppress the cell death; mRNA expression level of the erythropoietin gene [3]: increase the mRNA expression level; effect on erythropoietin gene promoter transcriptional activity compared with HIF activator FG-4592 [2]: superior to the effect of the existing HIF activator (FG-4592); transcription level of the erythropoietin gene promoter [2]: increase the transcription level
86 to 92.7 | CCOc1ccc2[nH]cc(CC(=O)O)c2c1 [compound #37, 5-Ethoxy-3-indoleacetic acid] |  | 
139 to 141 | CCCn1cc(C(CC(=O)c2ccc(C)cc2C)C(=O)O)c2ccccc21 (stereo not shown) [compound #6, 4-(2,4-Dimethylphenyl)-2-(1-propyl-1H-indol-3-yl)-4-oxo-butanoic acid] |  | 
 | COc1ccc2[nH]cc(CC(=O)O)c2c1 [compound #36, 5-Methoxy-3-indoleacetic acid] |  | increase of ATP concentration in cells relative to the normal level [1]: two or more times the normal level

Structure (SMILES) | melting point [°C] | amount of ATP produced (FIG. 8) [1] | further results
CCCCOc1ccc2cccc(CC(=O)O)c2c1 [compound #33, α-(7-Butoxy-1-naphthalenyl)-acetic acid] | 102 to 104 |  | 
CCCCOc1ccc2[nH]cc(CC(=O)O)c2c1 [compound #39, 5-(1-Butoxy)-3-indoleacetic acid] | 137.8 to 141.1 |  | 
CCCCCOc1ccc2cccc(CC(=O)O)c2c1 [compound #34, α-(7-Pentoxy-1-naphthalenyl)-acetic acid] | 104 to 106 |  | increase of ATP concentration in cells relative to the normal level [1]: two or more times the normal level
